Literature values, collected in patent publication US20110045130A1, “BIOACTIVE PEPTIDE PRODUCTION” (priority 2007, published 2011).

Experiments:
[1] = target: angiotensin converting enzyme (ACE) (Homo sapiens, UniProt P12821); conditions: in vitro effect on ACE activity; relatively low IC50 values
[2] = system: spontaneously hypertensive rats; conditions: tripeptides derived from lactic acid bacteria fermented milk

angiotensin converting enzyme (ACE), sequence (P12821 30-1306, species assumed): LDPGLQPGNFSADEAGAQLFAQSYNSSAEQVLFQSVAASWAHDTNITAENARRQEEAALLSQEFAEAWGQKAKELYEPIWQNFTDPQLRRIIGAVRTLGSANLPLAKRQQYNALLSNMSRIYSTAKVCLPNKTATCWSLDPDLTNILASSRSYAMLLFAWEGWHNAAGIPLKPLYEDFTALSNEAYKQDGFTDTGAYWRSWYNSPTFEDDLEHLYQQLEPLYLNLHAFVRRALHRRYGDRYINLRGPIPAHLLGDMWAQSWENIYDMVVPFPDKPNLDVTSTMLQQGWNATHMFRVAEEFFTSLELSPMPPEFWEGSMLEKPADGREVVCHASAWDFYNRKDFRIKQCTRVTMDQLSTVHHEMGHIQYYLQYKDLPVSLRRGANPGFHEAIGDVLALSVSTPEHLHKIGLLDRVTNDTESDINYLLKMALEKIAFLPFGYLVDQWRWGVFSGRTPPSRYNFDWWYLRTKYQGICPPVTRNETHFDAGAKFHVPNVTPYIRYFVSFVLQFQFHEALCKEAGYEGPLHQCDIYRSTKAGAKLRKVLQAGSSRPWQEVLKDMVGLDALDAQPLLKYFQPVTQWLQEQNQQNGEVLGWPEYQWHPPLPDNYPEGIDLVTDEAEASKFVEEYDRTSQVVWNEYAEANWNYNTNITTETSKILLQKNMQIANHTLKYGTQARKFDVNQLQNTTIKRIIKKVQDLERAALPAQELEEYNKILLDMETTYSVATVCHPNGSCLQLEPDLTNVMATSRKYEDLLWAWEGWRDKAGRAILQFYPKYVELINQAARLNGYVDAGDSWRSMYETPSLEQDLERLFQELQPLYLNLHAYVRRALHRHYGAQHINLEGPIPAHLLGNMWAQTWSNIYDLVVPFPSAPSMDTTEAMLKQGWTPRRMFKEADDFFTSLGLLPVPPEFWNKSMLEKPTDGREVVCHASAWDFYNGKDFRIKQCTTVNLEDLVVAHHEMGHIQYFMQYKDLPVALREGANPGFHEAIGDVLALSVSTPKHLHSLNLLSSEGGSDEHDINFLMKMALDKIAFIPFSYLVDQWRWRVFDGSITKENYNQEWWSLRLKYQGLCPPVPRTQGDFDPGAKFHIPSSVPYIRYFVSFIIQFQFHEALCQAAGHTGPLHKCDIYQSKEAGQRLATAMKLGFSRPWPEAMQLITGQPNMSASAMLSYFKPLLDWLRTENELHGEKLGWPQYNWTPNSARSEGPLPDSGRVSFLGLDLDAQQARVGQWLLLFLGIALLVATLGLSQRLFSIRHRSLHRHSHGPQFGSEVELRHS

Row | Substance | ACE inhibiting activity [1] | antihypertensive effects [2]
1 | Ile-Pro-Pro [IPP] | Strong ACE inhibiting activities | confirmed
2 | Leu-Pro-Pro [LPP] | Strong ACE inhibiting activities | 
3 | Val-Pro-Pro [VPP] | Strong ACE inhibiting activities | confirmed
